Experimental data from patent publication US20040154048A1, “Activation of nuclear transfer embryos” (priority 2001, published 2004).
Marks after values point to notes of the source that are not given here.

How the values were obtained:
IVM porcine oocytes = assay: Parthenogenetic activation of IVM porcine oocytes, development to blastocyst; assay type: cell-based; details: 5 μM ionomycin 5 min in mTALP-PVA, 6-DMAP +
Experimental: The preparation of in vitro matured (IVM) oocytes was essentially as described previously (Grupen et al, (1997) Reproduction Fertility Development 9:571-575). Ovaries from slaughtered prepubertal gilts were transported to the laboratory in Dulbecco's PBS supplemented with 0.6% (v/v) of an antibiotic solution (CSL Ltd) containing penicillin (10,000 U mL^−1), streptomycin (10,000 μg mL^−1) and fungizone (25 μg mL^−1) and maintained at 38° C. Antral follicles ([…] in diameter) were aspirated using a 21-gauge needle through which constant suction (1 L min^−1) was applied. The follicular contents were pooled in a collection tube. Cumulus-oocyte complexes (COCs) with at least three uniform layers of compact cumulus cells were recovered from the collected fluid, washed three times in OMM199a, transferred to 50 μl droplets (25 COCs per droplet) of OMM199a covered with mineral oil in a petrie dish (Becton Dickinson and Company, Plymouth, England) and incubated at 38.5° C. in a humidified atmosphere of 5% CO2 in air. After twenty two hours of maturation, expanded COCs were washed once in OMM199 without dibutyryl cAMP (OMM199b), transferred to 50 μl droplets of OMM199b and incubated for a further twenty four hours. At the end of the forty six hours maturation interval, the oocytes were treated with 0.5 mg mL^−1 hyaluronidase for one minute and then gently aspirated with a small bore glass pipette to remove the cumulus cells. Oocytes that had extruded a polar body were washed and kept in culture medium prior to activation.
The experiments hereafter were conducted with oocytes rather than nuclear transfer embryos. These experiments are termed parthenogenetic, since they are done without fertilized embryos. Parthenogenetic experiments are used routinely as a model system to investigate NT, largely because of the expense and additional experimental manipulation involved with NT embryos. Parthenogenetic experiments provide very useful information for the development of NT technology, and are directly predictive of NT outcomes.
Oocytes were activated forty six to forty eight hours after the start of maturation. Denuded oocytes that had extruded a polar body were washed and kept in modified TALP-PVA medium supplemented with 3.0 mM Ca-lactate (mTALP-PVA) for approximately one hour prior to activation. Oocytes were transferred to mTALP-PVA containing 5 μM ionomycin for five minutes. Oocytes were then washed twice and incubated in culture medium containing 2 mM 6-DMAP for three hours. The 6-DMAP treated oocytes were then washed twice and transferred to 50 μl droplets of the culture medium under mineral oil. In the ionomycin * treatment oocytes were not washed in media containing 6-DMAP.

porcine oocytes = details: ionomycin increased from 5 μM to 15 μM, low calcium levels; cited from earlier work

## C[C@H](CCC(=O)O)C[C@H](C)C[C@H](C)C(=O)/C=C(\O)[C@H](C)C[C@H](C)C/C=C/[C@@H](C)[C@@H](O)[C@@H](C)[C@@H](O)C[C@@H]1CC[C@@](C)([C@H]2CC[C@@](C)([C@@H](C)O)O2)O1 [Ionomycin, ionomycin]
IVM porcine oocytes
  Percentage developing to blastocyst, Day 6: 49^c %
  Percentage developing to blastocyst, Day 7: 51^c %
IVM porcine oocytes; listed as Ionomycin*
  Percentage developing to blastocyst, Day 6: 1^d %
  Percentage developing to blastocyst, Day 7: 1^d %
Porcine oocytes
  oocytes developing parthenogenetically to blastocyst stage: 23%
